Results reported in ChEMBL document CHEMBL1921725, “Synthesis and SAR development of novel P2X7 receptor antagonists for the treatment of pain: part 2” (Bioorg Med Chem Lett, 2011).
The source made the active and inactive calls. No cut-off for these calls is given here.

Columns and labels:
P2X purinoceptor 7 [1] = biological target: T1, P2X purinoceptor 7 (Homo sapiens, UniProt Q99572); assay: Antagonist activity at P2X7 receptor in LPS-stimulated human whole blood assessed as inhibition of ATP-induced IL1-beta production treated 30 mins before LPS challenge measured after 3 hrs by ELISA; format: functional, tissue-based
T1 sequence (Q99572 whole entry): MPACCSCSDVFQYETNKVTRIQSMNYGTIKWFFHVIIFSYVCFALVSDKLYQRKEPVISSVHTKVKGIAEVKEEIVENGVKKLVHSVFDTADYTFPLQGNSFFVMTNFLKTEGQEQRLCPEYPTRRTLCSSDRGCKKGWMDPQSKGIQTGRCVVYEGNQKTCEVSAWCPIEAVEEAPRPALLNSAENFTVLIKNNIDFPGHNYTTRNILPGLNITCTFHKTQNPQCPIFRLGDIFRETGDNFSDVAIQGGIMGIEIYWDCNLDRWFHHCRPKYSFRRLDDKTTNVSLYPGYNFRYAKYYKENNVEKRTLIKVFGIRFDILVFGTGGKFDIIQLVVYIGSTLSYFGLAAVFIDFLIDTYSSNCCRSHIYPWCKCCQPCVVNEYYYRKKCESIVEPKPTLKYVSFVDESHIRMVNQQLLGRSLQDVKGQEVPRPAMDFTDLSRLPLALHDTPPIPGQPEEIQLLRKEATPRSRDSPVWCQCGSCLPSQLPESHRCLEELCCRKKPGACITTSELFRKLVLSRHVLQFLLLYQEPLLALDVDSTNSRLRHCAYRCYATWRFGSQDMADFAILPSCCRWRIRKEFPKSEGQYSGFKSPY

[2] = AUC in rapid rat model at 10 mg/kg, po; format: ADME, organism-based; design: dose 10 mg/kg, route oral; settings: in vivo
[3] = Plasma concentration in rapid rat model plasma at 10 mg/kg, po after 6 hrs; format: ADME, organism-based; design: dose 10 mg/kg, route oral
P2X purinoceptor 7 [4] = biological target: T2, P2X purinoceptor 7 (Rattus norvegicus, UniProt Q64663); assay: Antagonist activity at P2X7 receptor in rat whole blood; format: functional, tissue-based
T2 sequence (Q64663 whole entry): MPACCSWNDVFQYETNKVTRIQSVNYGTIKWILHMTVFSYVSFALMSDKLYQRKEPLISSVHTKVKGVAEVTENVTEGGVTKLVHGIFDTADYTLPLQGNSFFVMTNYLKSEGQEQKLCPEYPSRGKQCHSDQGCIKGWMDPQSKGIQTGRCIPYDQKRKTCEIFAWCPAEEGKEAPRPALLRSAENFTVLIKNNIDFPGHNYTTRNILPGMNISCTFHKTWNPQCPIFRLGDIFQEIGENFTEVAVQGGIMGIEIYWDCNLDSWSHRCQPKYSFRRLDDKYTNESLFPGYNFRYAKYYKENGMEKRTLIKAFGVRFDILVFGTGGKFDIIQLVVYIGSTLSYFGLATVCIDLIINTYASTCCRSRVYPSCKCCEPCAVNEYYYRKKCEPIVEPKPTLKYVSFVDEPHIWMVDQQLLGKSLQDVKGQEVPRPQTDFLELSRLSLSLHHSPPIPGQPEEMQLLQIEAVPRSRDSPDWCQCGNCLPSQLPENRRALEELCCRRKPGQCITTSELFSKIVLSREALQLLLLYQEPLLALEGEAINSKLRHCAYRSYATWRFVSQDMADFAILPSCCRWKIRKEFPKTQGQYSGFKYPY

Rattus norvegicus [5] = assay: Analgesic activity in rat streptozocin-induced diabetic neuropathy model at 10 mg/kg, po after 4 hrs relative to gabapentin; format: functional, organism-based; design: dose 10 mg/kg
Rattus norvegicus [6] = assay: Analgesic activity in rat chronic constriction injury neuroinflammatory pain model at 60 mg/kg, po after 4 hrs relative to gabapentin; format: functional, organism-based; design: dose 60 mg/kg
Rattus norvegicus [7] = assay: Antihyperalgesic activity in rat mono-iodacetate-induced hyperalgesia model at 50 mg/kg, po after 4 hrs relative to naproxen; format: functional, organism-based; design: dose 50 mg/kg
[8] = Inhibition of sodium channel site 2 at 10 uM
[9] = Inhibition of L-type calcium channel diltiazem binding site at 10 uM
[10] = Inhibition of chloride channel at 10 uM
[11] = biological target: Sodium-dependent noradrenaline transporter (Homo sapiens) (UniProt P23975); assay: Inhibition of norepinephrine transporter at 10 uM
[12] = biological target: T3, P2X purinoceptor 4 (Homo sapiens) (UniProt Q99571); assay: Inhibition of P2X4 receptor at 10 uM
T3 sequence (whole entry): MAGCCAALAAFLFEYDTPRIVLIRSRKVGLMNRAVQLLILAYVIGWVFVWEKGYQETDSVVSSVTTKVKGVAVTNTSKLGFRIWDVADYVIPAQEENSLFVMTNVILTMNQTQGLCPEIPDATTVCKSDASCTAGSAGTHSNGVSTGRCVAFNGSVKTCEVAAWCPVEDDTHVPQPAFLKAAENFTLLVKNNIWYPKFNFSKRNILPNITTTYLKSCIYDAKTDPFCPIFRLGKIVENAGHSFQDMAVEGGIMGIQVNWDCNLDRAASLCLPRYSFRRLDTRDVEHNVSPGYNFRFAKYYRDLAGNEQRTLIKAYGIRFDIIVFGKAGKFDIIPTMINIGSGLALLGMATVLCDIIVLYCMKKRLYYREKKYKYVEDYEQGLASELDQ

Rattus norvegicus [13] = assay: Analgesic activity in rat chronic constriction injury neuroinflammatory pain model at 1 to 3 mg/kg, po after 4 hrs; format: functional, organism-based
Rattus norvegicus [14] = assay: Antihyperalgesic activity in rat mono-iodacetate-induced hyperalgesia model at 1 to 3 mg/kg, po after 4 hrs; format: functional, organism-based
Rattus norvegicus [15] = assay: Analgesic activity in rat spinal nerve ligation neuropathic pain model at 10 to 30 mg/kg, po after 4 hrs relative to pregabalin; format: functional, organism-based
Rattus norvegicus [16] = assay: Analgesic activity in rat streptozocin-induced diabetic neuropathy model at 10 mg/kg, po after 4 hrs; format: functional, organism-based; design: dose 10 mg/kg

Chain of Sodium-dependent noradrenaline transporter (Homo sapiens) (P23975 whole entry): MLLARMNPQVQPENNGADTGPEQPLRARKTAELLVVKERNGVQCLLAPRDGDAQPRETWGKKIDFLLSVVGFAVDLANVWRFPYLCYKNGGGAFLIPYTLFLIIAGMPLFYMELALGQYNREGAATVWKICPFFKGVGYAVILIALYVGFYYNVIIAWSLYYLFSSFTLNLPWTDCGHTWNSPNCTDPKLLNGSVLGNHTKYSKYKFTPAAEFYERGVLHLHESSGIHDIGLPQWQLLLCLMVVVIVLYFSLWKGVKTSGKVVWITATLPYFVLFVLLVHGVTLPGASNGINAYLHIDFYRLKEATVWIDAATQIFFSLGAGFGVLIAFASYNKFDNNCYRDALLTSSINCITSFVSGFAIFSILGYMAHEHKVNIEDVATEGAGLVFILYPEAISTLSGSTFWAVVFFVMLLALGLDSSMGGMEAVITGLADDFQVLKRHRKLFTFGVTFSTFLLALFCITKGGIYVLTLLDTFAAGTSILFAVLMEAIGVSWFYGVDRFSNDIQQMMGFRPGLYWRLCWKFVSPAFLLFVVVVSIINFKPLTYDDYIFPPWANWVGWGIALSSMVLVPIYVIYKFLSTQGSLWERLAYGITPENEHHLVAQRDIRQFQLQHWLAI

Row | Compound | IC50 (P2X purinoceptor 7 [1]) [nM] | AUC [2] [µM·h] | concentration at 6 h [3] [nM] | also measured
1 | CCN1C(=O)c2nc(-c3ccc(-c4cccc(C)c4)nc3)n(Cc3ccc(F)c(F)c3)c2N2CC(C)(C)N=C12 | 25 | 0.231 | – | –
2 | CCN1C(=O)c2nc(-c3ccc(-c4ccccc4)cc3)n(Cc3ccc(F)c(F)c3)c2N2C[C@@H](C(C)C)N=C12 | 178 | 3.76 | 392 | –
3 | CCN1C(=O)c2nc(-c3ccc(-c4ccccc4)nc3)n(Cc3ccc(F)c(F)c3)c2N2CC(C)(C)N=C12 | 24 | 13.7 | 2640 | –
4 | CCN1C(=O)c2nc(-c3ccc(-c4ccc(F)cc4)nc3)n(Cc3ccc(F)c(F)c3)c2N2CC(C)(C)N=C12 | 45 | 3.56 | 897 | –
5 | CCN1C(=O)c2nc(-c3ccc(-c4ccccc4F)nc3)n(Cc3ccc(F)c(F)c3)c2N2CC(C)(C)N=C12 | 52 | 2.71 | 537 | –
6 | CCN1C(=O)c2nc(-c3ccc(-c4ccccc4)cc3)n(Cc3ccc(F)cc3F)c2N2C[C@@H](C(C)C)N=C12 | 845 | – | – | –
7 | CCN1C(=O)c2nc(-c3ccc(-c4ccccc4)cc3)n(Cc3cc(F)cc(F)c3)c2N2C[C@@H](C(C)C)N=C12 | 107 | 1.11 | 93 | –
8 | CCN1C(=O)c2nc(-c3ccc(-c4cc(F)cc(F)c4)nc3)n(Cc3ccc(F)c(F)c3)c2N2CC(C)(C)N=C12 | 55 | 7.54 | 1260 | –
9 | CCN1C(=O)c2nc(-c3ccc(-c4ccc(C)cc4)nc3)n(Cc3ccc(F)c(F)c3)c2N2CC(C)(C)N=C12 | 39 | – | – | –
10 | CCN1C(=O)c2nc(-c3ccc(-c4cccc(F)c4)nc3)n(Cc3ccc(F)c(F)c3)c2N2CC(C)(C)N=C12 | 28 | 3.56 | 897 | –
11 | CCN1C(=O)c2nc(-c3ccc(-c4ccccc4)cc3)n(Cc3ccc(F)cc3)c2N2C[C@@H](C(C)C)N=C12 | 237 | – | – | –
12 | CCN1C(=O)c2nc(-c3ccc(-c4ccc(F)cc4F)nc3)n(Cc3ccc(F)c(F)c3)c2N2CC(C)(C)N=C12 | 95 | 4.14 | 537 | –
13 | CCN1C(=O)c2nc(-c3ccc(-c4ccccc4OC)nc3)n(Cc3ccc(F)c(F)c3)c2N2CC(C)(C)N=C12 | 101 | 1.62 | 224 | –
14 | CCN1C(=O)c2nc(-c3ccc(-c4ccc(OC)cc4)nc3)n(Cc3ccc(F)c(F)c3)c2N2CC(C)(C)N=C12 | 50 | – | – | –
15 | CCN1C(=O)c2nc(-c3ccc(-c4cccc(OC(F)(F)F)c4)nc3)n(Cc3ccc(F)c(F)c3)c2N2CC(C)(C)N=C12 | 110 | – | – | –
16 | CCN1C(=O)c2nc(-c3ccc(-c4ccccc4)cc3)n(Cc3cc(F)ccc3F)c2N2C[C@@H](C(C)C)N=C12 | 1040 | – | – | –
17 | CCN1C(=O)c2nc(-c3ccc(-c4ccc(C(F)(F)F)cc4)nc3)n(Cc3ccc(F)c(F)c3)c2N2CC(C)(C)N=C12 | 137 | 5.68 | 1570 | –
18 | CCN1C(=O)c2nc(-c3ccc(-c4ccccc4)cc3)n(Cc3ccc(F)cc3)c2N2CC(C)(C)N=C12 | 276 | – | – | –
19 | CCN1C(=O)c2nc(-c3ccc(-c4ccccc4)cc3)n(Cc3ccc(F)cc3F)c2N2CC(C)(C)N=C12 | 700 | – | – | –
20 | CCN1C(=O)c2nc(-c3ccc(-c4cccc(C(F)(F)F)c4)nc3)n(Cc3ccc(F)c(F)c3)c2N2CC(C)(C)N=C12 | 104 | 1.84 | 395 | –
21 | CCN1C(=O)c2nc(-c3ccc(-c4ccccc4)cc3)n(Cc3cc(F)cc(F)c3)c2N2CC(C)(C)N=C12 | 91 | – | – | –
22 | CCN1C(=O)c2nc(-c3ccc(-c4ccccc4)cc3)n(Cc3ccc(F)c(F)c3)c2N2CC3(CCCCC3)N=C12 | 388 | – | – | –
23 | CCN1C(=O)c2nc(-c3ccc(-c4ccccc4)cc3)n(Cc3ccccc3F)c2N2C[C@@H](C(C)C)N=C12 | 937 | – | – | –
24 | CCN1C(=O)c2nc(-c3ccc(-c4ccccc4)cc3)n(Cc3ccc(F)c(F)c3)c2N2CC(C)(C)N=C12 | 85 | 6.86 | 1370 | IC50 (P2X purinoceptor 7 [4]): 121 nM; Activity (Rattus norvegicus [5]): Active; Activity (Rattus norvegicus [6]): Active; Activity (Rattus norvegicus [7]): Active; inhibition [8]: > 80%; inhibition [9]: > 80%; inhibition [10]: > 80%; inhibition [11]: > 80%; inhibition [12]: 55%; Activity (Rattus norvegicus [13]): Active; Activity (Rattus norvegicus [14]): Active; Activity (Rattus norvegicus [15]): Active; Activity (Rattus norvegicus [16]): Active
25 | CCN1C(=O)c2nc(-c3ccc(-c4ccccc4)cc3)n(Cc3cccc(F)c3F)c2N2C[C@@H](C(C)C)N=C12 | 870 | – | – | –
26 | CCN1C(=O)c2nc(-c3ccc(-c4ccc(OC(F)(F)F)cc4)nc3)n(Cc3ccc(F)c(F)c3)c2N2CC(C)(C)N=C12 | 1940 | – | – | –
27 | CCN1C(=O)c2nc(-c3ccc(-c4ccccc4)cc3)n(Cc3ccc(F)c(F)c3)c2N2CCC(C)(C)N=C12 | 108 | – | – | –
28 | CCN1C(=O)c2nc(-c3ccc(-c4ccccc4)cc3)n(Cc3cccc(F)c3)c2N2C[C@@H](C(C)C)N=C12 | 269 | – | – | –
